Results taken from patent US9708318B2, “Bicyclic heterocycles as FGFR4 inhibitors” (Incyte Corporation, priority 2015, dated 2017).
Where two headings read alike, the source gives them in different places.

How the values were obtained:
[1] = biological target: FGFR2 (Homo sapiens (Human), UniProt P21802); assay: FGFR Enzymatic Assay (FRET peptide phosphorylation), FGFR2; format: biochemical
Experimental: (§1) The inhibitor potency of the exemplified compounds was measured in an enzyme assay that measures peptide phosphorylation using FRET measurements to detect product formation. Inhibitors were serially diluted in DMSO and a volume of 0.5 μL was transferred to the wells of a 384-well plate.
(§2) The enzymes were purchased from Millipore or Invitrogen.
(§3) GraphPad prism3 was used to analyze the data.

[2] = biological target: FGFR4 (Homo sapiens (Human), UniProt P22455); assay: FGFR Enzymatic Assay (FRET peptide phosphorylation), FGFR4; format: biochemical
FGFR4, sequence (P22455 22-802): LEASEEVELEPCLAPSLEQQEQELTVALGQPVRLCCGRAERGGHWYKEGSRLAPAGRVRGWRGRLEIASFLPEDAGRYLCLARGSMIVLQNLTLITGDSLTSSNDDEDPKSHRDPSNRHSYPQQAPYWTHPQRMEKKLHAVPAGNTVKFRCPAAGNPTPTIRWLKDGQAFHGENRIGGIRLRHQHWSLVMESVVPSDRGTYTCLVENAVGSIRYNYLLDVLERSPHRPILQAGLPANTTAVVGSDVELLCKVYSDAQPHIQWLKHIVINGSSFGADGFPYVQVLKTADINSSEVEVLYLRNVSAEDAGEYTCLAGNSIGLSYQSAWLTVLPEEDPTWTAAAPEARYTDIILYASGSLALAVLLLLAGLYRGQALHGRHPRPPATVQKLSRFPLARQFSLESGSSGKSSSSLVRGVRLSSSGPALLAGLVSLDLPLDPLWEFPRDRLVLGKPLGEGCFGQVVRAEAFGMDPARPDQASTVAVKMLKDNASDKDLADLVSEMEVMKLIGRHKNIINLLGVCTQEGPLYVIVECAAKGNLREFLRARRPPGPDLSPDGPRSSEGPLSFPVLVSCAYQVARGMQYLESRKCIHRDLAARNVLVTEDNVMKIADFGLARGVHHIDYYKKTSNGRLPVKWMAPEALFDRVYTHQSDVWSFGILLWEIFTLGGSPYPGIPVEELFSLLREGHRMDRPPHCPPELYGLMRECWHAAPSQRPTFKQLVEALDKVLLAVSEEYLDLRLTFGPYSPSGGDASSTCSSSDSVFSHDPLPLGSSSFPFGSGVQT
Experimental: as §1, §2, §3

[3] = biological target: FGFR1 (Homo sapiens (Human), UniProt P11362); assay: FGFR Enzymatic Assay (FRET peptide phosphorylation), FGFR1; conditions: FGFR1 IC50 (nM)
FGFR1, sequence (P11362 22-822): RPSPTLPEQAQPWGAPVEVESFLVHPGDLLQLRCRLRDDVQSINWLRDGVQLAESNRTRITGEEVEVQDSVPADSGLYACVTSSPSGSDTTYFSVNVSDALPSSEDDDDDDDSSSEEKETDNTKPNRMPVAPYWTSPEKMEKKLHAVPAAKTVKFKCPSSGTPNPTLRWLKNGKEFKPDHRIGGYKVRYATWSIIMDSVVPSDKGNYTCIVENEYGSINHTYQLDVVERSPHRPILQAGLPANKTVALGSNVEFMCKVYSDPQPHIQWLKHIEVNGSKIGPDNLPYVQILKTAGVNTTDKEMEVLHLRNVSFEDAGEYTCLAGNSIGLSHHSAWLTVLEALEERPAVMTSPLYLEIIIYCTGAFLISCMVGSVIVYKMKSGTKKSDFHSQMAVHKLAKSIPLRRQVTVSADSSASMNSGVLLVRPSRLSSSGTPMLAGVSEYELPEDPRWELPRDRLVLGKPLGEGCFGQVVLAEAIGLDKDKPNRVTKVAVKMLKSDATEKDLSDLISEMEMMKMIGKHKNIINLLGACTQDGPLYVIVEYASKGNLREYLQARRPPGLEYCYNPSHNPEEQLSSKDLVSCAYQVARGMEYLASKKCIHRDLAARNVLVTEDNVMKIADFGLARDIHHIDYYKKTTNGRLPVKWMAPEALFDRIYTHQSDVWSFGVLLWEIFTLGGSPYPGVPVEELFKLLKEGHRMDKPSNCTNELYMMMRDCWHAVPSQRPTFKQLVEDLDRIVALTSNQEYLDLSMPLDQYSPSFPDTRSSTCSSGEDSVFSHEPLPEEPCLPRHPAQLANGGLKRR

[4] = biological target: FGFR3 enzyme (Homo sapiens (Human), UniProt P22607); assay: FGFR Enzymatic Assay (FRET peptide phosphorylation), FGFR3; format: biochemical; conditions: for FGFR1/FGFR3 IC50 ratio / FGFR4/FGFR3 IC50 ratio: FGFR3 selectivity; for IC50: read-out: FGFR3 IC50
FGFR3 enzyme, sequence (P22607 23-806): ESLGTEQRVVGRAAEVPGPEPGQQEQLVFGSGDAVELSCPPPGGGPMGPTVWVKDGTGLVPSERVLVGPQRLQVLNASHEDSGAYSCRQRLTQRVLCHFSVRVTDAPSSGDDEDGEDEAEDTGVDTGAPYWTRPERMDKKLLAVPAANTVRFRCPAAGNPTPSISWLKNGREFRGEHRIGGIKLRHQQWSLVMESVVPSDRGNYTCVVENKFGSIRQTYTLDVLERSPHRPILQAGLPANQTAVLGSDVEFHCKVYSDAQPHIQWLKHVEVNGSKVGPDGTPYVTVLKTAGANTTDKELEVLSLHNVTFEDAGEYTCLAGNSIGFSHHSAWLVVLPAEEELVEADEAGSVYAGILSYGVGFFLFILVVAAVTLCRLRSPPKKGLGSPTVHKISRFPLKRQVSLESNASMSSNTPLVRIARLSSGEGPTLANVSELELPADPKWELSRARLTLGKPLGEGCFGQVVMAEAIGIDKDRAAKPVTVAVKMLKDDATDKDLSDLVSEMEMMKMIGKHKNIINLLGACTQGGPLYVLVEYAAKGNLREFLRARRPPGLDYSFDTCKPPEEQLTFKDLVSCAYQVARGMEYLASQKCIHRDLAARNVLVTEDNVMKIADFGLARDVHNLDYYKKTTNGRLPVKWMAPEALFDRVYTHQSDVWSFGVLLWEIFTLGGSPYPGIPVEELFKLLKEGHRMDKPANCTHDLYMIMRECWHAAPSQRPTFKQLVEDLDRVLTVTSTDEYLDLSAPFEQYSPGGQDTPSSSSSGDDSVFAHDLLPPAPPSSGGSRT
Experimental: as §1, §3

[5] = pre-incubated for 5 to 10 minutes

FGFR2, sequence (P21802 22-821): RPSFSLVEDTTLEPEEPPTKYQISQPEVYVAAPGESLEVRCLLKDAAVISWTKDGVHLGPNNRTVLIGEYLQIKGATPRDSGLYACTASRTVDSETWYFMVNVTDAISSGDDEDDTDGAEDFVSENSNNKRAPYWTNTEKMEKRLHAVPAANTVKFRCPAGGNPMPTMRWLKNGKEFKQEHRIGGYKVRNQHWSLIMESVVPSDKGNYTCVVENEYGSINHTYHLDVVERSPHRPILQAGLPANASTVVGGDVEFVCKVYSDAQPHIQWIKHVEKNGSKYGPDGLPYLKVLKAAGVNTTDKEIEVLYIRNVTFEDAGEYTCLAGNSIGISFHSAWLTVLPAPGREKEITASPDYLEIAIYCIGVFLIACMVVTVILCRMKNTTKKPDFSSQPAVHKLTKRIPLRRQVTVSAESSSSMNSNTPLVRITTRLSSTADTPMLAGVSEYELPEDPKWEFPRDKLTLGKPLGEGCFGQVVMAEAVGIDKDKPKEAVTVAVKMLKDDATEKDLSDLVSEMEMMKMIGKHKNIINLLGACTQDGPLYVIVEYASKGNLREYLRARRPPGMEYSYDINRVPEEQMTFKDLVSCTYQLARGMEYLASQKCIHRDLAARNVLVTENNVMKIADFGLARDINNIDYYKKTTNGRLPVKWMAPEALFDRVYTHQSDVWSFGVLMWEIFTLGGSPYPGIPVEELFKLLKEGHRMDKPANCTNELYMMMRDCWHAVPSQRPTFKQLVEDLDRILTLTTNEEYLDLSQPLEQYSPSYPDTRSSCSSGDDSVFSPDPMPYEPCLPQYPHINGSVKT

| IC50 ([1]; pre-incubated for 4 hours) [µM] | IC50 ([2]; pre-incubated for 4 hours) [µM] | IC50 ([3]; pre-incubated for 4 hours) [nM] | FGFR1/FGFR3 IC50 ratio ([4]; pre-incubated for 4 hours) | FGFR4/FGFR3 IC50 ratio ([4]; pre-incubated for 4 hours) | IC50 ([4]; pre-incubated for 4 hours) [µM] | IC50 [1, 5] [µM] | IC50 [2, 5] [µM] | IC50 [3, 5] [nM] | IC50 [4, 5] [µM] | Compound |
| --- | --- | --- | --- | --- | --- | --- | --- | --- | --- | --- |
| < 0.01 | 0.01 to 0.03 | 10 to 30 | >1 | >5 | < 0.01 |  |  |  |  | COc1cc(OC)c(F)c(N2Cc3cnc(-c4cn(C)nc4C)cc3N(C3CCCC3)C2=O)c1F [Example 32, 1-cyclopentyl-3-(2,6-difluoro-3,5-dimethoxyphenyl)-7-(1,3-dimethyl-1H-pyrazol-4-yl)-3,4-dihydropyrido[4,3-d]pyrimidin-2(1H)-one] |
| 0.03 to 0.2 | > 0.2 | 30 to 200 | >5 | >5 | 0.01 to 0.03 |  |  |  |  | COc1cc(OC)c(F)c(N2Cc3cnc(-c4cn(C)nc4C)cc3N(C3CC3)C2=O)c1F [Example 83, 1-cyclopropyl-3-(2,6-difluoro-3,5-dimethoxyphenyl)-7-(1,3-dimethyl-1H-pyrazol-4-yl)-3,4-dihydropyrido[4,3-d]pyrimidin-2(1H)-one] |
|  |  |  |  |  |  | 0.01 to 0.03 | 0.03 to 0.2 | 30 to 200 | 0.01 to 0.03 | COc1cc(OC)c(F)c(N2Cc3cnc(-c4cn(C)nc4C)cc3N(Cc3cnn(CC4CCCO4)c3)C2=O)c1F (stereo not shown) [Example 127, 3-(2,6-difluoro-3,5-dimethoxyphenyl)-7-(1,3-dimethyl-1H-pyrazol-4-yl)-1-((1-((tetrahydrofuran-2-yl)methyl)-1H-pyrazol-4-yl)methyl)-3,4-dihydropyrido[4,3-d]pyrimidin-2(1H)-one] |
| 0.01 to 0.03 | 0.03 to 0.2 | 30 to 200 | >5 | >3 | 0.01 to 0.03 |  |  |  |  | COc1cc(OC)c(F)c(N2Cc3cnc(-c4cn(CC(=O)N5CCOCC5)nc4C)cc3C3(CC3)C2=O)c1F [Example 159, 2′-(2,6-difluoro-3,5-dimethoxyphenyl)-6′-(3-methyl-1-(2-morpholino-2-oxoethyl)-1H-pyrazol-4-yl)-1′H-spiro[cyclopropane-1,4′-[2,7]naphthyridin]-3′(2′H)-one] |

Second part, the compound before the results:

| Compound | IC50 ([1]; pre-incubated for 4 hours) [µM] | IC50 ([2]; pre-incubated for 4 hours) [µM] | IC50 ([3]; pre-incubated for 4 hours) [nM] | FGFR1/FGFR3 IC50 ratio ([4]; pre-incubated for 4 hours) | FGFR4/FGFR3 IC50 ratio ([4]; pre-incubated for 4 hours) | IC50 ([4]; pre-incubated for 4 hours) [µM] | IC50 [1, 5] [µM] | IC50 [2, 5] [µM] | IC50 [3, 5] [nM] | IC50 [4, 5] [µM] |
| --- | --- | --- | --- | --- | --- | --- | --- | --- | --- | --- |
| COc1cc(OC)c(F)c(N2Cc3cnc(-c4cn(C)nc4C)cc3N(c3ncccn3)C2=O)c1F [Example 105, 3-(2,6-difluoro-3,5-dimethoxyphenyl)-7-(1,3-dimethyl-1H-pyrazol-4-yl)-1-(pyrimidin-2-yl)-3,4-dihydropyrido[4,3-d]pyrimidin-2(1H)-one] | 0.01 to 0.03 | 0.03 to 0.2 | 30 to 200 | >3 | >5 | 0.01 to 0.03 |  |  |  |  |
| COc1cc(OC)c(F)c(N2Cc3cnc(-c4cn(CC#N)nc4C)cc3C3(CC3)C2=O)c1F [Example 153, 2-(4-(2′-(2,6-difluoro-3,5-dimethoxyphenyl)-3′-oxo-2′,3′-dihydro-1′H-spiro[cyclopropane-1,4′-[2,7]naphthyridine]-6′-yl)-3-methyl-1H-pyrazol-1-yl)acetonitrile] | 0.01 to 0.03 | 0.01 to 0.03 | 30 to 200 | >5 | >3 | < 0.01 |  |  |  |  |
| CCn1cc(CN2C(=O)N(c3c(F)c(OC)cc(OC)c3F)Cc3cnc(-c4cn(C)nc4C)cc32)cn1 [Example 39, 3-(2,6-difluoro-3,5-dimethoxyphenyl)-7-(1,3-dimethyl-1H-pyrazol-4-yl)-1-((1-ethyl-1H-pyrazol-4-yl)methyl)-3,4-dihydropyrido[4,3-d]pyrimidin-2(1H)-one] | < 0.01 | < 0.01 | 10 to 30 | >10 | >10 | < 0.01 |  |  |  |  |
